From patent US7855200B2, “Method for treatment of gastric ulcers and ulcers induced by aspirin” (Council of Scientific and Industrial Research, priority 2006, dated 2010) come the findings set out here.

What all share (format): in vivo, albino rats
Assay [1] deals with acetyl salicylic acid induced gastric lesions. In words: Acetyl salicylic acid (aspirin) induced gastric ulcer. On the set-up: Ulcer index Mean(SE): scale not given here. To be noted: rats, aspirin 200 mg/kg. Here is the method: Stress induced gastric ulceration The commercially available drug ranitidine (sigma), Omeprazole (sigma) and sucralfate (Merck) were used as reference standard in experimental models. The Tween-80 (SD fine chemicals) was used as vehicle for the administration of the drug, which is used as control. Antiulcer activity of the compounds under taken was studied. The animals were divided into 20 groups of 6 animals each. Group 1 received the vehicle Tween 80 (1%, 1 ml) which served as the control. Group 2 received ranitidine at a dose of 50-mg/kg body weight, which served as standard for comparison. Group 3 to 20 at a dose of 25 mg/kg body weight. Rats were administered per orally with a daily dose of the compounds and the drug ranitidine for a period of five days and then fasted for 24 hours. The […] acetyl salicylic acid (aspirin) at a dose of 200 mg/kg body weight was administered as a suspension in tween-80 (1%), 30 min after the drug administration each day. All drugs were administered orally on the 6th day after the last administration of the drugs and the ulcer inducing agent aspirin, the rats were killed by cervical dislocation and their stomach were opened along the greater curvature and washed with luke warm saline and examined under a dissecting microscope. The ulcer index was calculated for each stomach. […] The antiulcer activity of the compounds was studied. The animals were divided into 19 groups of 6 animals each. Group 1 received the vehicle Tween 80 (1%, 1 ml) which served as the control. Group 2 received ranitidine at a dose of 50-mg/kg-body weight, which served as standard for comparison. […] Rats were administered per orally with a daily dose of the compounds and the drug ranitidine to respective groups for a period of five days and then fasted for 24 hours. The […] acetyl salicylic acid (aspirin) at a dose of 200 mg/kg body weight was administered as a suspension in tween-80 (1%), 30 min after the drug administration each day. All drugs were administered orally on ht […] day after the last administration of the drugs and the ulcer inducing agent aspirin, the rats were killed by cervical dislocation and their stomach were opened along the greater curvature and washed with luke warm saline and examined under a dissecting microscope.

In assay [2] the test system is gastric ulceration in cold restraint rats. The assay can be described thus: Cold restraint (stress) induced ulcers. On the set-up: Ulcer index Mean(SE): scale not given here. To be noted: rats, 4° C. for 2 hours.
Description: (§1) The compounds taken under study for antigastric ulcer screening by four different models were selected using experimental albino rats: • 1. Aspirin induced gastric ulceration • 2. Pylorus ligated gastric ulceration • 3. Ethanol induced gastric ulceration • 4. Stress induced gastric ulceration
(§2) The commercially available drug ranitidine (sigma), Omeprazole (sigma) and sucralfate (Merck) were used as reference standard in experimental models. The Tween-80 (SD fine chemicals) was used as vehicle for the administration of the drug, which is used as control.
(§3) The antiulcer activity of the compounds was studied. The animals were divided into 21 groups of 7 animals each. Group 1 received the vehicle Tween 80 (1%, 1 ml) which served as the control. Group 2 received ranitidine at a dose of 50-mg/kg body weight, which served as standard for comparison. Group 3 to 21 at a dose of 25 mg/kg body weight. Animals were deprived of food 48 hours before the experiment. The water was allowed for free access. Rats were administered per orally with compounds and the drug ranitidine. The water was removed 1 hour before restraint and exposed to a temperature of 4° C. for 2 hours. Two hours after stress, the animals were sacrificed. The stressed animals were opened along the greater curvature and the severity of gastric ulcer was assessed in terms of mean ulcer index. 2.
as §3, with “8” for “21”, “6” for “7”, “50, 25, 15, 10 and 5” for “25”, “weight respectively.” for “weight.”, “index.” for “index. 2.”

For assay [3], the system named is ethanol induced gastric ulcers. The assay can be described thus: Ethanol induced ulcers. As to conditions: rats, ethanol challenge; for Acidity Total mEg / Gastric content / pH: 4 hours after pylorus ligation. Here is the method:
Stress induced gastric ulceration The commercially available drug ranitidine (sigma), Omeprazole (sigma) and sucralfate (Merck) were used as reference standard in experimental models. The Tween-80 (SD fine chemicals) was used as vehicle for the administration of the drug, which is used as control. The animals were divided into 22 groups of 6 animals each. Animals were deprived of food for 48 hours but had free access to water. Group 1 received the vehicle Tween 80 (1%, 1 ml) which served as the control. Group 2 received ranitidine at a dose of 50-mg/kg-body weight, which served as standard for comparison. Group 3 to received Omeprazole at a dose of 30-mg/kg body weight, which served as standard for comparison. Group 4 received sucralfate at a dose of 400-mg/kg body weight, which served as standard for comparison. Group 5 to 22 received at a dose of 25 mg/kg body weight. Lesions were induced 1 hour after ethanol challenge animals. The stomach was ligated at the pylorus under ether anesthesia. 4 hours after pylorus ligation, the animals were sacrificed and the contents drained and centrifuges at 5000 rpm for 10 minutes. Aliquots of supernatant were used for determination of total acid by titrating with 0.01N NaOH using topfers reagent and phenolphthalein indicators. […] The animals were divided into 9 groups of 6 animals each. Animals were deprived of food for 48 hours but had free access to water. Group 1 received the vehicle Tween 80 (1%, 1 ml) which served as the control. Group 2 received ranitidine at a dose of 50-mg/kg-body weight, which served as standard for comparison. Group 3 to received Omeprazole at a dose of 30-mg/kg body weight, which served as standard for comparison. Group 4 received sucralfate at a dose of 400-mg/kg body weight, which served as standard for comparison. […] Lesions were induced 1 hour after ethanol challenge animals. The stomach was ligated at the pylorus under ether anesthesia. 4 hours after pylorus ligation, the animals were sacrificed and the contents drained and centrifuges at 5000 rpm for 10 minutes. Aliquots of supernatant were used for determination of total acid by titrating with 0.01N NaOH using topfers reagent and phenolphthalein indicators.

The next assay deals with Pylorus ligated rats. The assay can be described thus: Pylorus ligated ulcers. To be noted: 4 hours after pylorus ligation.
Description: as §1, §2
The animals were divided into 19 groups of 6 animals each. Animals were deprived of food for 48 hours but had free access to water. Group 1 received the vehicle Tween 80 (1%, 1 ml) which served as the control. Group 2 received ranitidine at a dose of 50-mg/kg-body weight, which served as standard for comparison. […] After one hour of administration of drug the stomach was ligated at the pylorus under ether anesthesia. 4 hours after pylorus ligation, the animals were sacrificed and the contents drained and centrifuges at 5000 rpm for 10 minutes. Aliquots of supernatant were used for determination of total acid by titrating with 0.01N NaOH using topfers reagent and phenolphthalein indicators. 4.
The animals were divided into 7 groups of 6 animals each. Animals were deprived of food for 48 hours but had free access to water. Group 1 received the vehicle Tween 80 (1%, 1 ml) which served as the control. Group 2 received ranitidine at a dose of 50-mg/kg-body weight, which served as standard for comparison. Group 3 to 7 received at a dose of 50, 25, 15, 10 and 5 mg/kg body weight respectively. After one hour of administration of drug the stomach was ligated at the pylorus under ether anesthesia. 4 hours after pylorus ligation, the animals were sacrificed and the contents drained and centrifuges at 5000 rpm for 10 minutes. Aliquots of supernatant were used for determination of total acid by titrating with 0.01N NaOH using topfers reagent and phenolphthalein indicators.

Setting [4] is: 25 mg/kg per orally daily for five days.
[5] abbreviates: Rattus norvegicus, po, 120 h, 25 mg/kg per orally daily for five days.
Where [6] appears, read: Rattus norvegicus, po, 25 mg/kg per orally.

SMILES strings stand for the structures.

As for `CNC(=C[N+](=O)[O-])NCCSCc1ccc(CN(C)C)o1` [Ranitidine, ranitidine, reference compound], the inhibition at 50 mg/kg in assay [1] (Rattus norvegicus, po, 120 h, 50 mg/kg per orally daily for five days) is 74.2%; in assay [2] (Rattus norvegicus, po, 50 mg/kg per orally), 78.8%; in assay [3] (Rattus norvegicus, 50 mg/kg), 61.3%; with Pylorus ligated rats (Rattus norvegicus, 50 mg/kg) it was 78.4%. The “Ulcer index Mean(SE)” value in assay [1] (50 mg/kg per orally daily for five days) is reported as 11.66; in assay [2] (50 mg/kg per orally), 08.62; in assay [3] (50 mg/kg), 25.83 (±2.22); with Pylorus ligated rats (50 mg/kg), 10.83 (±3.21). Besides, the “Acidity Total mEg” value was 26.74 (±1.54) mEg in assay [3] (50 mg/kg) and 31.8 (±1.91) m Eg in the assay with Pylorus ligated rats (50 mg/kg). Also, the Gastric content is on record as 5.0 (±0.48) in assay [3] (50 mg/kg) and 1.82 (±0.44) with Pylorus ligated rats (50 mg/kg). Also, the pH is listed as 4.96 (±0.13) in assay [3] (50 mg/kg) and 4.75 (±0.22) with Pylorus ligated rats (50 mg/kg).
For the compound `CN1CCN(CCCCOc2cc(O)c3c(=O)cc(-c4ccccc4)oc3c2)CC1` [NMC-3, 5-Hydroxy-7-[4-(4-methyl-piperzin-1-yl]-butoxy)-2-phenyl chromen-4-one], in assay [1] (setting [4]), the Inhibition % amounted to 33.52% and the “Ulcer index Mean(SE)” value was found to be 30.00. In assay [2] (25 mg/kg per orally), the Inhibition % is recorded as 57.92% and the “Ulcer index Mean(SE)” value worked out at 17.13. Also, in assay [3] (25 mg/kg), the Inhibition % came out at 36.25%, the “Ulcer index Mean(SE)” value is listed as 42.50 (±3.09), the “Acidity Total mEg” value was 33.48 (±2.28) mEg and the Gastric content is reported as 4.5 (±1.12). Moreover, in assay [3] (25 mg/kg), the pH is listed as 4.50 (±0.18). In addition, in the assay with Pylorus ligated rats (25 mg/kg), the “Acidity Total mEg” value was 43.48 (±2.50) m Eg, the Gastric content is recorded as 1.92 (±0.20), the Inhibition % amounted to 33.49% and the “Ulcer index Mean(SE)” value is reported as 33.33 (±2.47). Further, the pH in the assay on Pylorus ligated rats (25 mg/kg) is reported as 3.54 (±0.15).
Consider `CN(C)CCCOc1cc(O)c2c(=O)cc(-c3ccccc3)oc2c1` [CHN-2, 7-(3-Dimethylamino-propoxy)-5-hydroxy-2-phenyl chromen-4-one], for which the inhibition at 25 mg/kg in assay [1] (setting [5]) was 55.7%; in assay [2] (setting [6]) it was 56.1%; in assay [3] (Rattus norvegicus, 25 mg/kg), 42.5%; in the assay with Pylorus ligated rats (Rattus norvegicus, 25 mg/kg) it was 58.4%. Further, the “Ulcer index Mean(SE)” value is listed as 20.00 in assay [1] (setting [4]), 17.85 in assay [2] (25 mg/kg per orally), 38.33 (±3.07) in assay [3] (25 mg/kg) and 20.83 (±2.00) in the assay with Pylorus ligated rats (25 mg/kg). The “Acidity Total mEg” value was 28.10 (±0.48) mEg in assay [3] (25 mg/kg) and 37.18 (±4.20) m Eg in the assay with Pylorus ligated rats (25 mg/kg). Moreover, the Gastric content in assay [3] (25 mg/kg) was 3.2 (±0.42); with Pylorus ligated rats (25 mg/kg), 1.80 (±0.46). The pH in assay [3] (25 mg/kg) is 5.14 (±0.36); in the assay on Pylorus ligated rats (25 mg/kg), 4.25 (±0.09).
Regarding `COc1c(O)cc2oc(-c3ccccc3)cc(=O)c2c1O` [Oroxylin A, 5,7-Dihydroxy-6-methoxy-2-phenylchromen-4-one], the inhibition at 25 mg/kg in assay [1] (setting [5]) was 5.81%; in assay [2] (setting [6]) it was 5.26%; in assay [3] (Rattus norvegicus, 25 mg/kg) it was 27.5%; in the assay on Pylorus ligated rats (Rattus norvegicus, 25 mg/kg), 0%. The “Ulcer index Mean(SE)” value in assay [1] (setting [4]) is on record as 42.50; in assay [2] (25 mg/kg per orally), 38.57; in assay [3] (25 mg/kg), 48.33 (±3.33); in the assay with Pylorus ligated rats (25 mg/kg), 50.80 (±2.00). Further, the figures for the “Acidity Total mEg” value (in assay [3] (25 mg/kg); with Pylorus ligated rats (25 mg/kg)) were 48.24 (±2.84) mEg and 55.24 (±2.40) m Eg, respectively. For the same compound, the Gastric content in assay [3] (25 mg/kg) is listed as 4.0 (±0.45); with Pylorus ligated rats (25 mg/kg) it was 2.30 (±0.42). Also, the pH is listed as 3.19 (±0.73) in assay [3] (25 mg/kg) and 2.74 (±0.24) in the assay with Pylorus ligated rats (25 mg/kg).
In the case of `COc1c(OC2OC(C(=O)O)C(O)C(O)C2O)cc2oc(-c3ccccc3)cc(=O)c2c1O` (stereo not shown) [OA-5 acid, 3,4,5-Trihydroxy-6-(5-hydroxy-6-methoxy-4-oxo-2-phenyl-4H-chromen-7-yloxy)-tetrahydro-pyran-2-carboxylic acid], the inhibition at 25 mg/kg amounted to 48.3% in assay [1] (setting [5]); 41.9% in assay [2] (setting [6]); 45% in assay [3] (Rattus norvegicus, 25 mg/kg); 23.5% with Pylorus ligated rats (Rattus norvegicus, 25 mg/kg). The “Ulcer index Mean(SE)” value in assay [1] (setting [4]) is 23.33; in assay [2] (25 mg/kg per orally), 23.33; in assay [3] (25 mg/kg) it was 36.66 (±3.33); in the assay with Pylorus ligated rats (25 mg/kg), 38.33 (±1.66). Also, the “Acidity Total mEg” value in assay [3] (25 mg/kg) was 47.66 (±1.45) mEg; with Pylorus ligated rats (25 mg/kg), 41.00 (±0.57) m Eg. The Gastric content in assay [3] (25 mg/kg) is reported as 5.50 (±0.28); in the assay with Pylorus ligated rats (25 mg/kg), 2.16 (±0.16). Besides, the results for the pH (in assay [3] (25 mg/kg); in the assay on Pylorus ligated rats (25 mg/kg)) were 3.20 (±0.17) and 3.03 (±0.03), respectively.

What is called inhibition is the drop in the measured response relative to a control, in per cent.
